Reference: patent US5180742A, “Quinone derivatives, their production and use” (Takeda Chemical Industries, Ltd., priority 1984, dated 1993)

System: lipid peroxides production in rat brain homogenates
Assay: Inhibitory action on lipid peroxides production in rat brain homogenates (thiobarbituric acid method)
Assay type: biochemical, rat (SD)
Details: n = 4-6
Method: Inhibitory Action on Lipid Peroxides Production in Rat Brain Homogenates
The male SD rat brain tissue was used as 5% homogenate in phosphate-buffered solution. After incubation of the homogenate for 1 hour at 37° C., the amount of lipid peroxides produced was determined by the thiobarbituric acid method according to the description of Ohkawa et al. (Analytical Biochemistry, 95: 551, 1979)
Test compounds were used as a solution of dimethylsulfoxide. The inhibitory action on lipid peroxide production was expressed as a % inhibition as compared with the amount of production in the vehicle group. Results

Q: Which “Inhibition of lipid peroxides production” value (10^-4 M) does the source give for tocopherol [reference compound] here?
A: 46.5 ± 2.5%

Q: What about the “Inhibition of lipid peroxides production” value (10^-5 M) of the same substance?
A: 51.8 ± 10.2%

Q: And the “Inhibition of lipid peroxides production” value (10^-6 M)?
A: 0%
